# Numbers after ± are expanded uncertainties.
# Experiments:
# [1] = 298.15 K; 101.33 kPa; Liquid
# [2] = excess molar enthalpy (molar enthalpy of mixing); xn = mol fraction of the nth substance listed; settings: 298.15 K, 101.3 kPa, Liquid
compound,measurement,setting,value
CC(=O)CC(C)C [4-methylpentan-2-one],mass density,[1],796.19 ± 0.63 kg/m3
CC(=O)CC(C)C [4-methylpentan-2-one] + CCCCCCO,excess molar enthalpy,[2]; x1 = 0.0995,0.134 ± 0.00311 kcal/mol
same,excess molar enthalpy,[2]; x1 = 0.2004,0.234 ± 0.00526 kcal/mol
same,excess molar enthalpy,[2]; x1 = 0.3015,0.302 ± 0.00645 kcal/mol
same,excess molar enthalpy,[2]; x1 = 0.4029,0.344 ± 0.00741 kcal/mol
same,excess molar enthalpy,[2]; x1 = 0.5082,0.361 ± 0.00765 kcal/mol
same,excess molar enthalpy,[2]; x1 = 0.5096,0.36 ± 0.00765 kcal/mol
same,excess molar enthalpy,[2]; x1 = 0.6091,0.35 ± 0.00741 kcal/mol
same,excess molar enthalpy,[2]; x1 = 0.7086,0.313 ± 0.00669 kcal/mol
same,excess molar enthalpy,[2]; x1 = 0.8049,0.248 ± 0.0055 kcal/mol
same,excess molar enthalpy,[2]; x1 = 0.903,0.144 ± 0.00335 kcal/mol
CC(=O)CC(C)C [4-methylpentan-2-one] + CCCCCO,excess molar enthalpy,[2]; x1 = 0.1008,0.13 ± 0.00311 kcal/mol
same,excess molar enthalpy,[2]; x1 = 0.2043,0.224 ± 0.00502 kcal/mol
same,excess molar enthalpy,[2]; x1 = 0.304,0.286 ± 0.00621 kcal/mol
same,excess molar enthalpy,[2]; x1 = 0.403,0.322 ± 0.00693 kcal/mol
same,excess molar enthalpy,[2]; x1 = 0.4035,0.324 ± 0.00693 kcal/mol
same,excess molar enthalpy,[2]; x1 = 0.503,0.341 ± 0.00717 kcal/mol
same,excess molar enthalpy,[2]; x1 = 0.5035,0.337 ± 0.00717 kcal/mol
same,excess molar enthalpy,[2]; x1 = 0.6017,0.334 ± 0.00717 kcal/mol
same,excess molar enthalpy,[2]; x1 = 0.7007,0.303 ± 0.00645 kcal/mol
same,excess molar enthalpy,[2]; x1 = 0.7996,0.242 ± 0.00526 kcal/mol
same,excess molar enthalpy,[2]; x1 = 0.9002,0.144 ± 0.00335 kcal/mol
CC(=O)CC(C)C [4-methylpentan-2-one] + CCCCO,excess molar enthalpy,[2]; x1 = 0.1005,0.124 ± 0.00287 kcal/mol
same,excess molar enthalpy,[2]; x1 = 0.1998,0.212 ± 0.00478 kcal/mol
same,excess molar enthalpy,[2]; x1 = 0.2999,0.272 ± 0.00598 kcal/mol
same,excess molar enthalpy,[2]; x1 = 0.3967,0.312 ± 0.00669 kcal/mol
same,excess molar enthalpy,[2]; x1 = 0.3996,0.309 ± 0.00669 kcal/mol
same,excess molar enthalpy,[2]; x1 = 0.4967,0.331 ± 0.00717 kcal/mol
same,excess molar enthalpy,[2]; x1 = 0.5978,0.326 ± 0.00693 kcal/mol
same,excess molar enthalpy,[2]; x1 = 0.6981,0.297 ± 0.00645 kcal/mol
same,excess molar enthalpy,[2]; x1 = 0.7978,0.238 ± 0.00526 kcal/mol
same,excess molar enthalpy,[2]; x1 = 0.9006,0.14 ± 0.00335 kcal/mol
CC(=O)CC(C)C [4-methylpentan-2-one] + CCCO,excess molar enthalpy,[2]; x1 = 0.0797,0.0934 ± 0.00237 kcal/mol
same,excess molar enthalpy,[2]; x1 = 0.1587,0.164 ± 0.00382 kcal/mol
same,excess molar enthalpy,[2]; x1 = 0.2384,0.22 ± 0.00478 kcal/mol
same,excess molar enthalpy,[2]; x1 = 0.3192,0.262 ± 0.00574 kcal/mol
same,excess molar enthalpy,[2]; x1 = 0.3901,0.29 ± 0.00621 kcal/mol
same,excess molar enthalpy,[2]; x1 = 0.4948,0.31 ± 0.00669 kcal/mol
same,excess molar enthalpy,[2]; x1 = 0.5955,0.307 ± 0.00669 kcal/mol
same,excess molar enthalpy,[2]; x1 = 0.6981,0.281 ± 0.00598 kcal/mol
same,excess molar enthalpy,[2]; x1 = 0.8004,0.225 ± 0.00502 kcal/mol
same,excess molar enthalpy,[2]; x1 = 0.9012,0.135 ± 0.00311 kcal/mol
CC(=O)CC(C)C [4-methylpentan-2-one] + CCO,excess molar enthalpy,[2]; x1 = 0.0772,0.0649 ± 0.00179 kcal/mol
same,excess molar enthalpy,[2]; x1 = 0.1571,0.122 ± 0.00287 kcal/mol
same,excess molar enthalpy,[2]; x1 = 0.2369,0.169 ± 0.00382 kcal/mol
same,excess molar enthalpy,[2]; x1 = 0.2947,0.208 ± 0.00454 kcal/mol
same,excess molar enthalpy,[2]; x1 = 0.3977,0.251 ± 0.0055 kcal/mol
same,excess molar enthalpy,[2]; x1 = 0.5,0.279 ± 0.00598 kcal/mol
same,excess molar enthalpy,[2]; x1 = 0.5995,0.287 ± 0.00621 kcal/mol
same,excess molar enthalpy,[2]; x1 = 0.6981,0.273 ± 0.00598 kcal/mol
same,excess molar enthalpy,[2]; x1 = 0.7954,0.232 ± 0.00502 kcal/mol
same,excess molar enthalpy,[2]; x1 = 0.897,0.149 ± 0.00359 kcal/mol
CC(=O)CC(C)C [4-methylpentan-2-one] + CO,excess molar enthalpy,[2]; x1 = 0.0523,0.034 ± 0.00232 kcal/mol
same,excess molar enthalpy,[2]; x1 = 0.0998,0.0604 ± 0.00335 kcal/mol
same,excess molar enthalpy,[2]; x1 = 0.1502,0.0839 ± 0.0043 kcal/mol
same,excess molar enthalpy,[2]; x1 = 0.2002,0.105 ± 0.00526 kcal/mol
same,excess molar enthalpy,[2]; x1 = 0.2495,0.126 ± 0.00598 kcal/mol
same,excess molar enthalpy,[2]; x1 = 0.2954,0.159 ± 0.00741 kcal/mol
same,excess molar enthalpy,[2]; x1 = 0.4019,0.192 ± 0.0086 kcal/mol
same,excess molar enthalpy,[2]; x1 = 0.5037,0.209 ± 0.00932 kcal/mol
same,excess molar enthalpy,[2]; x1 = 0.6059,0.211 ± 0.00932 kcal/mol
same,excess molar enthalpy,[2]; x1 = 0.707,0.195 ± 0.00884 kcal/mol
same,excess molar enthalpy,[2]; x1 = 0.8119,0.155 ± 0.00717 kcal/mol
same,excess molar enthalpy,[2]; x1 = 0.908,0.0917 ± 0.00454 kcal/mol
CCCCO [butan-1-ol],mass density,[1],805.75 ± 0.69 kg/m3
CCO [ethanol],mass density,[1],785.15 ± 0.58 kg/m3
CCCCCCO [hexan-1-ol],mass density,[1],815.2 ± 0.99 kg/m3
CO [methanol],mass density,[1],786.5 ± 0.61 kg/m3
CCCCCO [pentan-1-ol],mass density,[1],810.88 ± 0.99 kg/m3
CCCO [propan-1-ol],mass density,[1],799.51 ± 0.57 kg/m3

# From the NIST ThermoML archive (doi:10.1016/j.tca.2004.09.012)
